From patent US11399543B2, “Substituted 1,2,3,5-tetrahydroimidazo[1,2-a]pyrimidiniumolates for combating animal pests” (BASF SE, priority 2017, dated 2022)
Where two headings read alike, the source gives them in different places.

How the values were obtained:
Format in all cases: in vivo
[1] = tested on: green peach aphid (Myzus persicae); assay: Green peach aphid B.5.2, systemic, artificial diet under membrane; settings: 72 h, read-out: mortality in comparison with untreated controls
Text: B.5.2. For evaluating control of green peach aphid (Myzus persicae) through systemic means the test unit consisted of 96-well-microtiter plates containing liquid artificial diet under an artificial membrane. The compounds were formulated using a solution containing 75% v/v water and 25% v/v DMSO. Different concentrations of formulated compounds were pipetted into the aphid diet, using a custom built pipetter, at two replications.
After application, 5-8 adult aphids were placed on the artificial membrane inside the microtiter plate wells. The aphids were then allowed to suck on the treated aphid diet and incubated at about 23±1° C. and about 50±5% relative humidity for 3 days. Aphid mortality and fecundity was then visually assessed.

[2] = tested on: Cowpea Aphid (Aphis craccivora); assay: Cowpea aphid, sprayed potted cowpea plants; settings: after 72 hours, read-out: mortality in comparison with untreated controls
Protocol: (§1) The active compound is dissolved at the desired concentration in a mixture of 1:1 (vol:vol) distilled water:acetone. Surfactant (Alkamuls® EL 620) is added at a rate of 0.1% (vol/vol). The test solution is prepared at the day of use.
Potted cowpea plants were colonized with approximately 50-100 aphids of various stages by manually transferring a leaf tissue cut from infested plant 24 hours before application. Plants were sprayed after the pest population has been recorded. Treated plants are maintained on light carts at about 28° C. Percent mortality was assessed after 72 hours.

[3] = tested on: tobacco budworm (Heliothis virescens); assay: Tobacco budworm control, microtiter plate insect diet with eggs; settings: 120 h, 5 days, read-out: mortality in comparison with untreated controls (egg and larval mortality)
Protocol: For evaluating control of tobacco budworm (Heliothis virescens) the test unit consisted of 96-well-microtiter plates containing an insect diet and 15-25 H. virescens eggs.
The compounds were formulated using a solution containing 75% v/v water and 25% v/v DMSO. Different concentrations of formulated compounds were sprayed onto the insect diet at 10 μl, using a custom built micro atomizer, at two replications.
After application, microtiter plates were incubated at about 28±1° C. and about 80±5% relative humidity for 5 days. Egg and larval mortality was then visually assessed.

[4] = tested on: vetch aphid (Megoura viciae); assay: Vetch aphid, broad bean leaf disks, contact or systemic; settings: foliar, 120 h, 5 days, read-out: mortality in comparison with untreated controls
Protocol: For evaluating control of vetch aphid (Megoura viciae) through contact or systemic means the test unit consisted of 24-well-microtiter plates containing broad bean leaf disks.
The compounds were formulated using a solution containing 75% v/v water and 25% v/v DMSO. Different concentrations of formulated compounds were sprayed onto the leaf disks at 2.5 μl, using a custom built micro atomizer, at two replications.
After application, the leaf disks were air-dried and 5-8 adult aphids placed on the leaf disks inside the microtiter plate wells. The aphids were then allowed to suck on the treated leaf disks and incubated at about 23±1° C. and about 50±5% relative humidity for 5 days. Aphid mortality and fecundity was then visually assessed.

[5] = tested on: Rice Brown Plant Hopper (Nilaparvata lugens); assay: Rice brown plant hopper, sprayed rice seedlings; settings: after 72 hours, adults, read-out: mortality in comparison with untreated controls
Protocol: (§2) Rice seedlings were cleaned and washed 24 hours before spraying. The active compounds were formulated in 50:50 acetone:water (vol:vol) and 0.1% vol/vol surfactant (EL 620) was added. Potted rice seedlings were sprayed with 5 ml test solution, air dried, placed in cages and inoculated with 10 adults. Treated rice plants were kept at about 28-29° C. and relative humidity of about 50-60%. Percent mortality was recorded after 72 hours.

[6] = tested on: Rice Green Leafhopper (Nephotettix virescens); assay: Rice green leafhopper, sprayed rice seedlings; settings: after 72 hours, adults, read-out: mortality in comparison with untreated controls
Protocol: as §2, with “(vol:vol),” for “(vol:vol)”

[7] = tested on: Diamond Back Moth (Plutella xylostella); assay: Diamond back moth, cabbage leaf dip; settings: foliar, 72 hours after treatment, 3rd instar larvae, read-out: mortality in comparison with untreated controls
Protocol: as §1
Leaves of cabbage were dipped in test solution and air-dried. Treated leaves were placed in petri dish enlined with moist filter paper and inoculated with ten 3rd instar larvae. Mortality was recorded 72 hours after treatment. Feeding damages were also recorded using a scale of 0-100%.

[8] = tested on: Southern Armyworm (Spodoptera eridania), 2nd Instar Larvae; assay: Southern armyworm, sprayed lima bean plants; settings: 96 h, 4 days after treatment, read-out: mortality in comparison with untreated controls
Protocol: (§3) The active compounds were formulated in cyclohexanone as a 10,000 ppm solution supplied in tubes. The tubes were inserted into an automated electrostatic sprayer equipped with an atomizing nozzle and they served as stock solutions for which lower dilutions were made in 50% ace-tone:50% water (v/v). A nonionic surfactant (Kinetic®) was included in the solution at a volume of 0.01% (v/v).
Lima bean plants (variety sieva) were grown 2 plants to a pot and selected for treatment at the 1st true leaf stage. Test solutions were sprayed onto the foliage by an automated electrostatic plant sprayer equipped with an atomizing spray nozzle. The plants were dried in the sprayer fume hood and then removed from the sprayer. Each pot was placed into perforated plastic bags with a zip closure. About 10 to 11 armyworm larvae were placed into the bag and the bags zipped closed. Test plants were maintained in a growth room at about 25° C. and about 20-40% relative humidity for 4 days, avoiding direct exposure to fluorescent light (24 hour photoperiod) to prevent trapping of heat inside the bags. Mortality and reduced feeding were assessed 4 days after treatment, compared to untreated control plants.

[9] = tested on: Silverleaf Whitefly (Bemisia argentifolii) (Adults); assay: Silverleaf whitefly adults, sprayed cotton plants; settings: at 300, 3 days after treatment
Text: as §3, with “non-ionic” for “nonionic”
Cotton plants at the cotyledon stage (one plant per pot) were sprayed by an automated electrostatic plant sprayer equipped with an atomizing spray nozzle. The plants were dried in the sprayer fume hood and then removed from the sprayer. Each pot was placed into a plastic cup and about 10 to 12 whitefly adults (approximately 3-5 days old) were introduced. The insects were collected using an aspirator and a nontoxic Tygon® tubing connected to a barrier pipette tip. The tip, containing the collected insects, was then gently inserted into the soil containing the treated plant, allowing insects to crawl out of the tip to reach the foliage for feeding. Cups were covered with a reusable screened lid. Test plants were maintained in a growth room at about 25° C. and about 20-40% relative humidity for 3 days, avoiding direct exposure to fluorescent light (24-hour photoperiod) to prevent trapping of heat inside the cup. Mortality was assessed 3 days after treatment, compared to untreated control plants.

[10] = tested on: Green Peach Aphid (Myzus persicae, Mixed Life Stages); assay: Green peach aphid B.5.1, sprayed bell pepper plants; settings: 120 h, after 5 days, read-out: mortality in comparison with untreated controls
Protocol: B.5.1. The active compounds were formulated by a Tecan liquid handler in 100% cyclohexanone as a 10,000 ppm solution supplied in tubes. The 10,000 ppm solution was serially diluted in 100% cyclohexanone to make interim solutions. These served as stock solutions for which final dilutions were made by the Tecan in 50% acetone:50% water (v/v) into 10 or 20 ml glass vials. A nonionic surfactant (Kinetic®) was included in the solution at a volume of 0.01% (v/v). The vials were then inserted into an automated electrostatic sprayer equipped with an atomizing nozzle for application to plants/insects.
Bell pepper plants at the first true-leaf stage were infested prior to treatment by placing heavily infested leaves from the main colony on top of the treatment plants. Aphids were allowed to transfer overnight to accomplish an infestation of 30-50 aphids per plant and the host leaves were removed. The infested plants were then sprayed by an automated electrostatic plant sprayer equipped with an atomizing spray nozzle. The plants were dried in the sprayer fume hood, removed, and then maintained in a growth room under fluorescent lighting in a 24-hr photoperiod at about 25° C. and about 20-40% relative humidity. Aphid mortality on the treated plants, relative to mortality on untreated control plants, was determined after 5 days.

[11] = tested on: Green Soldier Stink Bug (Nezara viridula); assay: Green soldier stink bug, sprayed soybean pods in Petri dishes; settings: 120 h, after 5 days, late 3rd instar, read-out: mortality in comparison with untreated controls
Protocol: The active compound was dissolved at the desired concentration in a mixture of 1:1 (vol:vol) distilled water:aceteone. Surfactant (Kinetic® HV) is added at a rate of 0.01% (vol/vol). The test solution was prepared at the day of use.
Soybean pods were placed in 90×50 mm glass Petri dishes lined with moist filter paper and inoculated with ten late 3rd instar N. viridula. Using a hand atomizer, an approximately 2 ml solution is sprayed into each Petri dish. Treated cups were kept at about 25-26° C. and relative humidity of about 65-70%. Percent mortality was recorded after 5 days.

[12] = at 2500 ppm, 3 days, systemic, artificial diet

Compound	mortality at 2500 ppm [1, 12]	mortality at 300 ppm [2]	mortality at 2500 ppm [3]	mortality at 2500 ppm [4]	mortality at 300 ppm [5]	mortality at 300 ppm [6]	mortality at 300 ppm [7]	mortality at 300 ppm [8]	mortality in comparison with untreated controls [9]	mortality at 300 ppm [10]	mortality at 300 ppm [11]	mortality at 2500 ppm [1]
COc1ccc(-c2c([O-])n3c([n+](C)c2=O)N(C)CC3c2cnc(Cl)s2)cc1 (centres unmarked) [Compound C-1, 3-(2-chlorothiazol-5-yl)-6-(4-methoxyphenyl)-1,8-dimethyl-7-oxo-2,3-dihydroimidazo[1,2-a]pyrimidin-8-ium-5-olate]	> 75%	> 75%										
C[n+]1c([O-])c(-c2ccccc2)c(=O)n2c1N(C(=O)OC(C)(C)C)CC2c1cnc(Cl)s1 (centres unmarked) [Compound C-2]	> 75%											
CN1CC(c2cnc(Cl)s2)n2c1[n+](C)c([O-])c(-c1ccccc1)c2=O (centres unmarked) [Compound C-3]	> 75%	> 75%	> 75%	> 75%	> 75%	> 75%						
CN1CC(c2cnc(Cl)s2)n2c1[n+](C)c([O-])c(-c1cc(Cl)cc(Cl)c1)c2=O (centres unmarked) [Compound C-4]	> 75%	> 75%	> 75%	> 75%	> 75%	> 75%	> 75%	> 75%				
CN1CC(c2cnc(Cl)s2)n2c1[n+](C)c([O-])c(-c1cccc(C(F)(F)F)c1)c2=O (centres unmarked) [Compound C-5]	> 75%	> 75%	> 75%	> 75%	> 75%	> 75%	> 75%	> 75%	over 75%	> 75%	> 75%	
CN1C[C@@H](c2cnc(Cl)s2)n2c1[n+](C)c([O-])c(-c1cccc(C(F)(F)F)c1)c2=O [Compound C-20]	> 75%	> 75%		> 75%				> 75%			> 75%	
CN1CC(c2ccc(Cl)nc2)n2c1[n+](C)c([O-])c(-c1cc(Cl)cc(Cl)c1)c2=O (centres unmarked) [Compound C-21]												> 75%
C[n+]1c2n(c([O-])c(-c3ccccc3)c1=O)C(c1cnc(Cl)s1)CN2 (centres unmarked) [Compound C-25]												> 75%
